Experimental data published in patent US10588952B2, “Conjugate vaccine using trimming function of ERAP1” (SUMITOMO DAINIPPON PHARMA CO., LTD., priority 2013, dated 2020).
≈ marks a conversion by molar mass, not a printed value. One block for each compound: values may come before it. Bridge positions count the residues as written; N and C are the ends. Peptide text beside a SMILES is read from it. I, II: the chains in the order shown.

Tests used:
[1] = physchem
Method: To prepare a test solution, about 1 mg of a test product was measured and the isotonic buffer (0.5 mL) was added thereto. The prepared solution was shaken at room temperature for 90 min (shaking conditions: RECIPRO SHAKER SR-1N manufactured by TAITEC, Speed=8), centrifuged (15000 rpm, 5 min, room temperature), and the supernatant after centrifugation was used as a test solution.
About 1 mg of the test product was accurately measured, dissolved in 0.1% TFA water/acetonitrile=1/1, made the total amount 10 mL, and this was used as a standard solution of the test product.
The standard solution of the test product and the test solution are analyzed by HPLC (under the analysis conditions described in Table 34), and the solubility of the test product is calculated from the ratio of peak area compared to the standard solution.
column: Chemcopack Quicksorb (4.6 mmφ×150 mm, 5 μm)
manufactured by Chemco Scientific Co., Ltd.
mobile phase: SOLUTION A; 0.1% TFA water, SOLUTION B;
0.1% TFA acetonitrile solution
column temperature: room temperature
detection wavelength: UV 254 nm, 230 nm (2 wavelength detection)
sample injection volume: 10

[2] = test system: HLA-A0201 transgenic mouse; assay: In vivo CTL induction ability, IFNγ ELISPOT, formula (11) (Experimental Example 13); conditions: 250 μg/site with IFA, 17 hr
Method: The compound represented by the formula (11) synthesized in Example 109 was evaluated for the CTL induction ability by an in vivo CTL induction test using an HLA-A0201 transgenic mouse. The compound represented by the formula (11): […]
To evaluate whether CTLs to each of the peptides (SEQ ID NOs: 19 and 88) endogenously presented by cancer cells was induced, the compound represented by the formula (11) was administered to the HLA-A0201 transgenic mouse. That is, it was determined whether IFNγ production was observed by re-stimulation, with the peptide (SEQ ID NO: 19 or 88), of the splenocyte derived from the above-mentioned mouse administered with the compound represented by the formula (11).
Specifically, the compound represented by the formula (11) was dissolved in dimethyl sulfoxide (DMSO) at 80 mg/mL, further diluted with water for injection to 10 mg/mL, and emulsified by mixing with an equal amount of incomplete Freund's adjuvant (IFA). The emulsified compound was intradermally administered to 2 sites at the base of tail of the mouse at 250 μg/site. One week later, the mouse was euthanized with CO2 gas, the spleen was isolated, and splenocytes were prepared. IFNγ ELISPOT assay kit was used for the measurement of IFNγ production. […] The number of spots that developed color was measured by ImmunoSpot Analyzer (manufactured by C.T.L.). […]

[3] = test system: HLA-A0201 transgenic mouse; assay: In vivo CTL induction ability, IFNγ ELISPOT, formula (5) (Experimental Example 14); conditions: 250 μg/site with IFA, 17 hr
Method: The compound represented by the formula (5) synthesized in Example 110 was evaluated for the CTL induction ability by an in vivo CTL induction test using HLA-A0201 transgenic mouse. The compound represented by the formula (5): […]
Specifically, the compound represented by the formula (5) was dissolved in dimethyl sulfoxide (DMSO) at 80 mg/mL, further diluted with water for injection to 10 mg/mL, and emulsified by mixing with an equal amount of incomplete Freund's adjuvant (IFA). The emulsified compound was intradermally administered to 2 sites at the base of tail of the mouse at 250 μg/site. One week later, the mouse was euthanized with CO2 gas, the spleen was isolated, and splenocytes were prepared. IFNγ ELISPOT assay kit was used for the measurement of IFNγ production. On the previous day of splenocyte preparation, an ELISPOT plate was treated with an anti-mouse IFNγ antibody, and blocked with RPMI1640 medium containing 10% FBS the next day. The prepared HLA-A0201 transgenic mouse-derived splenocytes were plated at 0.25×10^6 cells/well on the blocked ELISPOT plate. […] After the culture, the supernatant was removed, and the ELISPOT plate was allowed to develop color according to the attached protocol. The number of spots that developed color was measured by ImmunoSpot Analyzer (manufactured by C.T.L.).

[4] = biological target: T1, ERAP1 (Homo sapiens, UniProt Q9NZ08); assay: Time-course changes of trimming of N-terminal amino acid by ERAP1 (Experimental Example 2); type: biochemical; conditions: peptide obtained by trimming (SEQ ID NO: 53, 43 or 19), ERAP1 solution 0.5 mg/ml, room temperature
T1 sequence (Q9NZ08 whole entry): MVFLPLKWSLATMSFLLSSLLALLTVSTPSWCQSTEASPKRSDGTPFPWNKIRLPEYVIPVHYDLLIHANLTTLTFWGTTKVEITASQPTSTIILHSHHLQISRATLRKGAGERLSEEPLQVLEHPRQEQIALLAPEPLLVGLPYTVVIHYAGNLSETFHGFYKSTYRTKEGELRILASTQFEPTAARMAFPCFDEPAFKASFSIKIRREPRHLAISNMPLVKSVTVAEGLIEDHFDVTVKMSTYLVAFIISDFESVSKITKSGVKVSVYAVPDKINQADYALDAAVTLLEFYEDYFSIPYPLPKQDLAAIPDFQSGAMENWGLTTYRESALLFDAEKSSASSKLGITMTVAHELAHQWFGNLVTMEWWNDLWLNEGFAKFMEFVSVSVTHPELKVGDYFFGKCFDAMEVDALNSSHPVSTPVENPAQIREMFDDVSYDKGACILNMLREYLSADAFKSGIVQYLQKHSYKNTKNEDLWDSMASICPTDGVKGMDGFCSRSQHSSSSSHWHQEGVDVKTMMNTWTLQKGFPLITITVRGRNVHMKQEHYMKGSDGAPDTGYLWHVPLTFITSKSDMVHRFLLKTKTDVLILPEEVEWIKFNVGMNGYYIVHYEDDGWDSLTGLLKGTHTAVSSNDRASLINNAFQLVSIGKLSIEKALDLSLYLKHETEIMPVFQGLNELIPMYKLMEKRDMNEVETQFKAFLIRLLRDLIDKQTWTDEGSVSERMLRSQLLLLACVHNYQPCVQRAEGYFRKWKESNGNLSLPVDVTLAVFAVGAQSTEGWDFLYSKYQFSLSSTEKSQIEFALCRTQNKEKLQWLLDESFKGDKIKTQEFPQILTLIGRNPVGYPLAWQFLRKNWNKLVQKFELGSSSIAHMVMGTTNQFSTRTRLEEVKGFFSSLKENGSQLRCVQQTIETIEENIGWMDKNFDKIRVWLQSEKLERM
Method: 20 μl of ERAP1 solution (0.5 mg/ml) in Tris.HCl buffer was added to 172 μl of Tris.HCl buffer. 10 mM peptide solution in DMSO (8.0 μl) was added to the aforementioned ERAP1 solution, and the mixture was blended well and stood at room temperature. […]
pump: UFLC manufactured by Shimadzu column: Shim-pack XR-ODS 3.0 mmi.d.×75 mm solution: 0.05% TFA H2O(A)-0.05% TFA CH3CN(B) […]
detection wavelength: λ=220 nm gradient: Concentration of SOLUTION B was raised from 1.0% 70% from 0.0 min to 5.0 min […]
The peptide to be obtained by the trimming of the N-terminal amino acid(s) by ERAP1 is, […]

[5] = test system: HLA-A0201 transgenic mouse; assay: In vivo CTL induction ability, IFNγ ELISPOT, Cys-extended peptides (Experimental Example 3); conditions: intradermal, 2 sites, 50 μg/site with IFA; splenocytes one week later re-stimulated with Cys non-extended or Cys-extended peptide 10 μg/mL
Method: The CTL induction ability of each peptide extended by cysteine (Cys) (Cys-extended peptide) shown in Table 23 was evaluated by in vivo CTL induction test using an HLA-A0201 transgenic mouse.
HLA-A0201 transgenic mouse (C57BL/6CrHLA-A2.1DR1) is a mouse which is defective in mouse MHC, and expresses a chimera HLA of human MHC HLA-A0201 and mouse MHC H-2D^b, and HLA-DRB1*0101.
The emulsified peptide was intradermally administered to 2 sites at the base of tail of the mouse at 50 μg/site. One week later, the mouse was euthanized with CO2 gas, the spleen was isolated, and splenocytes were prepared. IFNγ ELISPOT assay kit was used for the measurement of IFNγ production. On the previous day of splenocyte preparation, an ELISPOT plate was treated with an anti-mouse IFNγ antibody, and blocked with RPMI1640 medium containing 10% FBS the next day. The prepared HLA-A0201 transgenic mouse-derived splenocytes were plated at 2.5×10^5 cells/well on the blocked ELISPOT plate. […] These splenocytes were cultivated for 20 hr at 37° C., 5% CO2, whereby peptide re-stimulation in vitro was performed. Thereafter, the supernatant was removed, and the ELISPOT plate was allowed to develop color according to the attached protocol. The number of spots that developed color was measured by KS ELISPOT.

[6] = biological target: T1, ERAP1; assay: Test of trimming of N-terminal amino acid by ERAP1 (Experimental Example 11, Examples 50, 56, 64, 67); type: biochemical; conditions: Proteinase-3 169-177 peptide obtained by ERAP1 trimming; from HPLC AUC
Method: The peptides synthesized in Examples 50, 56, 64 and 67 were evaluated for N-terminal amino acid trimming efficiency using ERAP1. 50 μl of ERAP1 solution (10 μg/ml) in pH 8.0, 20 mM Tris.HCl-100 mM NaCl buffer (Tris.HCl buffer) was added to 142 μl of Tris.HCl buffer. 10 mM peptide solution in DMSO (2.0 μl) and 6.0 μL of DMSO were added to the aforementioned ERAP1 solution, and the mixture was blended well and stood at 30° C. […] The peptide to be obtained by trimming was chemically synthesized separately, and analyzed under similar conditions in the absence of the enzyme. […]
pump: UFLC manufactured by Shimadzu […]
solution: 0.1% TFA H2O(A)-0.1% TFA CH3CN(B) […]
detection wavelength: λ=220 nm gradient: concentration of SOLUTION B was raised from 10% to 50% from 0.0 min to 8.5 min

[7] = splenocytes pulsed with SEQ ID NO: 19, 10 μg/mL

Compound: CC[C@H](C)[C@H](NC(=O)[C@H](Cc1c[nH]c2ccccc12)NC(=O)[C@H](CCSC)NC(=O)[C@H](CC(C)C)NC(=O)[C@H](CC(C)C)NC(=O)[C@@H](N)CO)C(=O)N[C@H](C(=O)N[C@@H](CCC(N)=O)C(=O)N[C@@H](CSSC[C@H](N)C(=O)NCC(=O)N[C@@H](CC(C)C)C(=O)N[C@@H](Cc1ccc(O)cc1)C(=O)N[C@@H](CC(=O)O)C(=O)NCC(=O)N[C@@H](CCSC)C(=O)N[C@@H](CCC(=O)O)C(=O)N[C@@H](Cc1c[nH]cn1)C(=O)N[C@@H](CC(C)C)C(=O)O)C(=O)O)[C@@H](C)O [Example 109]
solubility at 90 min ([1]; pH 6): 79 µg/mL (≈ 35.4 µM)
solubility at 90 min ([1]; pH 7.4): 700 µg/mL (≈ 314 µM)
induction of CTLs specific to the peptide shown by SEQ ID NO: 19 [2, 7]: can induce CTLs
induction of CTLs specific to the peptide shown by SEQ ID NO: 88 ([2]; splenocytes pulsed with SEQ ID NO: 88, 10 μg/mL): can induce CTLs

Compound: CSCC[C@H](NC(=O)CNC(=O)[C@H](CC(=O)O)NC(=O)[C@H](Cc1ccc(O)cc1)NC(=O)[C@H](CC(C)C)NC(=O)CNC(=O)[C@@H](N)CSSC[C@H](N)C(=O)N[C@H](C(=O)N[C@@H](CC(C)C)C(=O)N[C@@H](CCC(N)=O)C(=O)N[C@@H](CCC(=O)O)C(=O)N[C@@H](CC(C)C)C(=O)N[C@@H](CC(N)=O)C(=O)N[C@H](C(=O)N[C@H](C(=O)N[C@H](C(=O)O)C(C)C)[C@@H](C)O)C(C)C)C(C)C)C(=O)N[C@@H](CCC(=O)O)C(=O)N[C@@H](Cc1c[nH]cn1)C(=O)N[C@@H](CC(C)C)C(=O)O [Example 110] (I: H-CGLYDGMEHL-OH / II: H-CVLQELNVTV-OH; disulfide I:1-II:1)
induction of CTLs specific to the peptide shown by SEQ ID NO: 19 [3, 7]: can induce CTLs
induction of CTLs specific to the peptide shown by SEQ ID NO: 43 ([3]; splenocytes pulsed with SEQ ID NO: 43, 10 μg/mL): can induce CTLs
solubility thermodynamic at 90 min ([1]; pH 6): 511 µg/mL (≈ 227 µM)
solubility thermodynamic at 90 min ([1]; pH 7.4): > 1000 µg/mL

formation rate(%) 1 hr later [4]: 95.1%
formation rate(%) 2 hr later [4]: 106%
formation rate(%) 4 hr later [4]: 100%
formation rate(%) 8 hr later [4]: 101%
Compound: H-CGLYDGMEHL-OH [Example 25]
in vivo CTL induction ability (IFNγ ELISPOT) [5]: has an in vivo CTL induction ability

formation rate(%) 1 hr later [4]: 83.4%
formation rate(%) 2 hr later [4]: 85.6%
formation rate(%) 4 hr later [4]: 78.8%
formation rate(%) 8 hr later [4]: 83.9%
Compound: H-CVLQELNVTV-OH [Example 21]
in vivo CTL induction ability (IFNγ ELISPOT) [5]: has an in vivo CTL induction ability

formation rate of VLQELNVTV (SEQ ID NO: 43) [6]: 1.1%
Compound: H-GCVLQELNVTV-OH [Example 56]

formation rate of VLQELNVTV (SEQ ID NO: 43) [6]: 1.3%
Compound: H-SCVLQELNVTV-OH [Example 64]

formation rate of VLQELNVTV (SEQ ID NO: 43) [6]: 0.7%
Compound: H-YCVLQELNVTV-OH [Example 67]
